Measurements taken from paper PMC10779950, “Binding Free Energy Calculation Based on the Fragment Molecular Orbital Method and Its Application in Designing Novel SHP-2 Allosteric Inhibitors” (International Journal of Molecular Sciences, 2024).

What was measured:
SHP2^WT (1–593) = molecular target: T1, SHP2^WT (1–593) (Homo sapiens, UniProt Q06124); assay: SHP-2 prompt fluorescence phosphatase assay (DiFMUP), SHP2^WT; format: biochemical; conditions: for IC50: SHP2^WT, DiFMUP substrate, averages of three independent experiments, read-out: SHP-2 IC50; for ΔGexp: converted from IC50 with ΔGexp ≈ kBTlog IC50
T1 construct: made in house; host or cells: E. coli BL21 Star (DE3), pET30 vector
T1 sequence (Q06124 1-593): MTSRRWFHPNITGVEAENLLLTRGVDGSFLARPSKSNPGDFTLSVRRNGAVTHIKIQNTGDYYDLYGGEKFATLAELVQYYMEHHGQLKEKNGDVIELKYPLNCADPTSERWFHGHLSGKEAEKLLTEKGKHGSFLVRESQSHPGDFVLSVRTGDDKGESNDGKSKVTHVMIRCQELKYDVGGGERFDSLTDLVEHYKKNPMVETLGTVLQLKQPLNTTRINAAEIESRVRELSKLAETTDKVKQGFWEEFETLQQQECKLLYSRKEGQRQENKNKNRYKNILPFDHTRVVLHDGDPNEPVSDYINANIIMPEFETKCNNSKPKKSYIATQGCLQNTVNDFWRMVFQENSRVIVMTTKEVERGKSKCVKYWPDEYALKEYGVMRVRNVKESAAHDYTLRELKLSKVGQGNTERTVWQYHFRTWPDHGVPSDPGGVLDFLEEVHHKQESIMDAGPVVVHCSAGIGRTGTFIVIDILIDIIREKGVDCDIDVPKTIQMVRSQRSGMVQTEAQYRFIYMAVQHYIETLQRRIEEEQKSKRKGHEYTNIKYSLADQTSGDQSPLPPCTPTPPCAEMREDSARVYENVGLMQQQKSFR
Experimental: (§1) Briefly, the constructs were transformed into BL21 Star^TM (DE3) cells and cultured at 37 °C for 3~4 h. Subsequently, the cells with high expression of SHP2 protein were harvested after being induced by IPTG and grown overnight at 18 °C. Cell pellets were resuspended in lysis buffer (25 mM imidazole, 50 mM Tris−HCl, 500 mM NaCl, 2.5 mM MgCl2, 1 mM tris(2-carboxyethyl)phosphine (TCEP), 1 μg/mL DNase1, and complete EDTA-free protease inhibitor) and lysed using Low Temperature Ultrahigh Pressure Continuous Flow Cell Disrupter (JNBIO), followed by ultracentrifugation. The supernatant was collected. Then, the SHP2 was purified from the collected supernatant by using HisTrap HP chelation column, TEV protease, and HiTrap Q FastFlow column.
(§2) Then, the mixture was then incubated at 25 °C for 60 min. To initiate the reaction, the surrogate substrate DiFMUP (Invitrogen, cat. no. D6567, Shuzhou, China, 200 μM) was added and incubated at 25 °C for another 30 min. […] Fluorescence signal was detected using a microplate reader (Bio-Tek, Shanghai, China, Synergy2) at Ex/Em = 340/450 nm. Using control-based normalization, normalized IC50 regression curves were fitted to inhibitor dose response curves.

SHP2^PTP (237–529) = molecular target: T2, SHP2^PTP (237–529) (Homo sapiens, UniProt Q06124); assay: SHP-2 prompt fluorescence phosphatase assay (DiFMUP), SHP2^PTP; format: biochemical; conditions: catalytic PTP domain construct
T2 construct: made in house; host or cells: E. coli BL21 Star (DE3), pET30 vector
T2 sequence (Q06124 237-529): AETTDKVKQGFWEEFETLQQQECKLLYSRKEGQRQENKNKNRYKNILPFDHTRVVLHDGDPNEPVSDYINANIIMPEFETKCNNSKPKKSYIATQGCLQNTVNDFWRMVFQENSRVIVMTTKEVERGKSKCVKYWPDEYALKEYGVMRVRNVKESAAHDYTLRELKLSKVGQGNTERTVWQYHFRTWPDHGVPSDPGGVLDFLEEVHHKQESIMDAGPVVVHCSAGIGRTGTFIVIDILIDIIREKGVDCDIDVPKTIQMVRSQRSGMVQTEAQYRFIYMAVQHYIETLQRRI
Experimental: as §1, §2

THR-β = assay: Experimental THR-β activity of agonists taken from Hu et al.; format: biochemical; conditions: Table S4, converted from the experimental value
Source text: In the initial phase of our investigation, we conducted a retrospective evaluation of FMOScore’s performance concerning thyroid hormone receptor β (THR-β) agonists, using a set of 18 compounds taken from the work of Hu et al. [65]

c-Met [1] = system: c-Met; set-up: method as in earlier work; conditions: Schrödinger FEP+ benchmark; cited from earlier work
c-Met [2] = system: c-Met; set-up: method as in earlier work; conditions: FEP+ predicted ΔG from the benchmark; cited from earlier work
HIF-2α = conditions: experimental binding free energy, ref Schrödinger FEP+ benchmark; cited from earlier work
SYK [3] = conditions: experimental binding free energy, ref Schrödinger FEP+ benchmark; cited from earlier work
SYK [4] = system: SYK; set-up: method as in Schrödinger FEP+ benchmark; conditions: FEP+ predicted binding free energy, ref Schrödinger FEP+ benchmark; cited from earlier work
TNKS2 [5] = conditions: experimental binding free energy, ref Schrödinger FEP+ benchmark; cited from earlier work
TNKS2 [6] = system: TNKS2; set-up: method as in Schrödinger FEP+ benchmark; conditions: FEP+ predicted binding free energy, ref Schrödinger FEP+ benchmark; cited from earlier work
SHP-2 = SHP-2 ligand set; experimental binding free energy; ref Schrödinger FEP+ benchmark; cited from earlier work

inhibitory activity against SHP-2 (in words) (SHP2^WT (1–593); Figure S4, DIFMUP substrate, mean ± SD (n = 3)) | IC50 (SHP2^WT (1–593)) [µM] | ΔGexp (SHP2^WT (1–593)) [kcal/mol] | fold decrease of biochemical inhibition compared to SHP099 (SHP2^WT (1–593); ratio of IC50) [fold] | IC50 (SHP2^PTP (237–529)) [µM] | Compound | ΔGexp (THR-β) [kcal/mol] | Exp. ΔG (c-Met [1]) [kcal/mol] | FEP (c-Met [2]) [kcal/mol] | Exp. ΔG (HIF-2α) [kcal/mol] | Exp. ΔG (SYK [3]) [kcal/mol] | FEP (SYK [4]) [kcal/mol] | Exp. ΔG (TNKS2 [5]) [kcal/mol] | FEP (TNKS2 [6]) [kcal/mol] | Exp. ΔG (SHP-2) [kcal/mol]
potent inhibitory activity | 1.49 ± 0.024 | -7.943 | 16 | > 100 | CC1(N)CCN(c2cnc(-c3cccc(Cl)c3Cl)c(N)c2)CC1 [Compound 1, 5-(4-amino-4-methylpiperidin-1-yl)-2-(2,3-dichlorophenyl) pyridin-3-amine] | -8.186 | -9.14 | -9.88 | -11.32 | -12.39 | -12.21 | – | – | –
– | 10.7 ± 0.92 | -6.780 | – | – | CC1(N)CCN(c2cnc(-c3ccnc(Cl)c3Cl)c(N)c2)CC1 [Compound 6, 5-(4-amino-4-methylpiperidin-1-yl)-2′,3′-dichloro-[2,4′-bipyridin]-3-amine] | -10.257 | -12.28 | -12.22 | – | -11.69 | -9.59 | – | – | –
– | 5.17 ± 1.08 | -7.207 | – | – | Nc1cc(NC2CCNC2)cnc1-c1cccc(Cl)c1Cl (centres unmarked) [Compound 3, 2-(2,3-dichlorophenyl)-N5-(pyrrolidin-3-yl) pyridine-3,5-diamine] | -8.435 | -7.46 | -5.97 | – | -8.64 | -6.76 | – | – | –
– | – | – | – | – | O=[N+]([O-])c1cc(Br)cnc1Sc1cccc(Cl)c1Cl [Compound S4] | – | – | – | – | – | – | – | – | -5.82

Compound | inhibitory activity against SHP-2 (in words) (SHP2^WT (1–593); Figure S4, DIFMUP substrate, mean ± SD (n = 3)) | IC50 (SHP2^WT (1–593)) [µM] | ΔGexp (SHP2^WT (1–593)) [kcal/mol] | fold decrease of biochemical inhibition compared to SHP099 (SHP2^WT (1–593); ratio of IC50) [fold] | IC50 (SHP2^PTP (237–529)) [µM] | ΔGexp (THR-β) [kcal/mol] | Exp. ΔG (c-Met [1]) [kcal/mol] | FEP (c-Met [2]) [kcal/mol] | Exp. ΔG (HIF-2α) [kcal/mol] | Exp. ΔG (SYK [3]) [kcal/mol] | FEP (SYK [4]) [kcal/mol] | Exp. ΔG (TNKS2 [5]) [kcal/mol] | FEP (TNKS2 [6]) [kcal/mol] | Exp. ΔG (SHP-2) [kcal/mol]
CC1(N)CCN(c2cnc(Sc3cccc(Cl)c3Cl)c(N)c2)CC1 [Compound 7, 5-(4-amino-4-methylpiperidin-1-yl)-2-((2,3-dichlorophenyl)thio)pyridin-3-amine] | – | 11.3 ± 1.19 | -6.747 | – | – | -7.406 | -8.73 | -9.19 | – | -10.79 | -10.29 | -8.4 | -9.01 | –
